Test results: article PMC11732138, “Gold complex compounds that inhibit drug-resistant Staphylococcus aureus by targeting thioredoxin reductase” (Frontiers in Antibiotics, 2023)
In brackets after ≈: the same amount, converted by molar mass. Like-named read-outs stand apart in the source and are kept apart here.

Tests used:
K. pneumoniae ATCC 77326 = test: Broth microdilution MIC, K. pneumoniae; format: cell-based, Klebsiella pneumonia; conditions: Klebsiella pneumoniae, ATCC77326; K. pneumoniae ATCC 77326; read-out: MIC
Procedure: (§1) In vitro antibiotic susceptibilities were determined using the broth microdilution assay established by the Clinical and Laboratory Standards Institute ([Clinical and Laboratory Standards Institute, 2012]). Broth microdilution assays were carried out with 2 biological replicates, each in triplicate, Mueller–Hinton broth (MHB; BD Biosciences, Franklin Lakes, NJ, USA) with a total assay volume of 100 μL in 96-well plates (BD Biosciences, Franklin Lakes, NJ, USA). Two-fold serial dilutions of compounds were prepared at a range of 0.01– 64 μg/mL in 50 μL of MHB. The initial bacterial inoculum was adjusted to OD600 0.06, 50 μL was, added to the test compounds, and then incubated at 35°C for 18 h. Post incubation, OD600 was measured using a Vmax microplate reader (Molecular Devices, San Jose, CA), and the lowest concentration of test compound that suppressed bacterial growth was reported as the MIC. Broth culture from the MIC assay (10 μL) was plated on Mueller–Hinton agar (BD Biosciences, Franklin Lakes, NJ, USA), and colony-forming units (CFUs) were enumerated after overnight incubation at 37°C.

Enterobacter (EAE 2625) = test: Broth microdilution MIC, Enterobacter; format: cell-based, Enterobacter spp.; conditions: Enterobacter (EAE 2625); read-out: MIC
Procedure: as §1

S. aureus MW2 [1] = test: Broth microdilution MIC, S. aureus MW2; format: cell-based, Staphylococcus aureus; conditions: for MIC: S. aureus MW2 (MRSA), broth microdilution, 18 h
Procedure: as §1

A. baumannii 17978 = test: Broth microdilution MIC, A. baumannii; format: cell-based, Acinetobacter baumannii; conditions: Acinetobacter baumannii; A. baumannii 17978; read-out: MIC
Procedure: as §1

E. faecium ATCC E007 = test: Broth microdilution MIC, E. faecium; format: cell-based, Enterococcus faecium; conditions: Enterococcus faecium, ATCCE007; E. faecium ATCC E007; read-out: MIC
Procedure: as §1

P. aeruginosa PA14 = test: Broth microdilution MIC, P. aeruginosa; format: cell-based, Pseudomonas aeruginosa; conditions: Pseudomonas aeruginosa; P. aeruginosa PA14; read-out: MIC
Procedure: as §1

S. aureus TrxR = S. aureus TrxR (Staphylococcus aureus, UniProt P66011); test: TrxR (TrxB) enzymatic assay, DTNB to TNB conversion; conditions: for TrxR enzymatic inhibitory activity (in words): DTNB to TNB conversion
S. aureus TrxR, sequence (P66011 whole entry): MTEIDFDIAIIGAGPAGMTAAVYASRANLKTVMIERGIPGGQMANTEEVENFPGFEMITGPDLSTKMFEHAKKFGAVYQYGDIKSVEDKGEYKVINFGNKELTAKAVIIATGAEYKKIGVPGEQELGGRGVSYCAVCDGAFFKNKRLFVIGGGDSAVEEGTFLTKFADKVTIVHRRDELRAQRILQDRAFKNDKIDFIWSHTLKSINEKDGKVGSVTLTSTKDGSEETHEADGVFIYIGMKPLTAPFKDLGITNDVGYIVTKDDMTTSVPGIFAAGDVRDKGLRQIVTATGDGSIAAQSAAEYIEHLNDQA
Procedure: TrxR specific inhibitory activity was evaluated using 40 μL of S. aureus TrxR enzyme (0.5 μg/μL) per 200 mL of the reaction mixture for 15 minutes, comparing auranofin to other sulfur-containing compounds (all tested at 10 μg/mL), including known anti-S. aureus compounds.
For the screening assay, diluted TrxR assay buffer (Cayman Chemical, Ann Arbor, MI) (100 μL) was mixed with the investigational compounds (20 μL) in a 96 well-plate format and combined with Sa-TrxB (40 μL; 0.5 μg/mL), DTNB (20 μL) and NADPH (20 μL). The reaction entailed combining NADPH and Sa-TrxB with DTNB, which was converted to TNB, producing a yellow color.

[2] = test system: clinical isolates of S. aureus; test: MIC against clinical isolates of S. aureus; format: cell-based; conditions: Staphylococcus aureus, read-out: MIC
Procedure: Broth microdilution assays were carried out with 2 biological replicates, each in triplicate, Mueller–Hinton broth (MHB; BD Biosciences, Franklin Lakes, NJ, USA) with a total assay volume of 100 μL in 96-well plates (BD Biosciences, Franklin Lakes, NJ, USA). […] The initial bacterial inoculum was adjusted to OD600 0.06, 50 μL was, added to the test compounds, and then incubated at 35°C for 18 h. Post incubation, OD600 was measured using a Vmax microplate reader (Molecular Devices, San Jose, CA), and the lowest concentration of test compound that suppressed bacterial growth was reported as the MIC.
Isolates were tested as 2 biological replicates.

[3] = Compound solubility in PBS; format: physicochemical; conditions: aqueous buffer, kinetic from dmso stock; PBS, 2 Hour; highest concentration with no detectable precipitate; read-out: Solubility Limit
Procedure: Compound solubility in PBS. Compound solubility was measured in PBS. Briefly, serial dilutions of test compounds were prepared in DMSO at 100x the final concentration. Test compound solutions were diluted 100-fold into PBS in a 96-well plate and mixed. After 2 h, the presence of precipitate was detected by measuring absorbance at 540 nm.

[4] = test system: intracellular free thiols of S. aureus MW2; test: Thiol depletion assay; format: cell-based, Staphylococcus aureus; conditions: treated vs untreated cell lysate
Procedure: S. aureus MW2 was treated for 15 min with the indicated (0.125, 0.25, 0.5, or 0.75 µg/mL) concentrations of auranofin, AU1, AU5, or ampicillin. After treatment bacteria were washed twice in PBS and then resuspended in 100 mM potassium phosphate, monobasic, pH 7.4, containing 1 mM ethylenediaminetetraacetic acid to promote lysis. Cells were incubated in the lysis solution for 30 min at 60°C and then vortexed briefly. The solution was centrifuged at 13,000 g for 10 min to collect cell debris. Lysate was collected and 50 μL was transferred to a 96-well plate. Thiols were quantified using the Fluorometric Thiol assay kit following the manufacturer’s instructions (Millipore Sigma, St. Louis, MO, USA). The fluorescence intensity was measured after a 30 min incubation time at λex = 490/λem = 535 nm using a Vmax plate reader.

S. aureus MW2 [5] = test: Diamide assay (CFU reduction); format: cell-based, Staphylococcus aureus; conditions: 3 h
Procedure: An overnight culture of S. aureus MW2 was inoculated in tryptic soy broth (TSB) media and grown with agitation. The cells were centrifuged, washed with PBS, and diluted to an OD600 0.4 (10^8 CFU/mL) in PBS. The cells were then treated with auranofin (0.5 µg/mL), AU1 (0.5 µg/mL), AU5 (0.5 µg/mL), and diamide (5 mM and 10 mM) alone or in combinations for 3 h at 37°C. The cells were then serially diluted and plated on tryptic soy agar (TSA) media and incubated at 37°C for 24 h. Colonies that grew on plates were enumerated to determine the effect of the drug and diamide on S. aureus.

CC(C)(C)c1ccc(S(=O)(=O)/C=C/C#N)cc1 [Bay11-7085]
MIC (K. pneumoniae ATCC 77326): > 64 µg/mL
MIC (Enterobacter (EAE 2625)): > 64 µg/mL
MIC (S. aureus MW2 [1]; Staphylococcus aureus, read-out: MIC): 4 µg/mL (≈ 16 µM)
MIC (A. baumannii 17978): 64 µg/mL (≈ 257 µM)
MIC (E. faecium ATCC E007): 32 µg/mL (≈ 128 µM)
MIC (P. aeruginosa PA14): > 64 µg/mL
OD420 in TrxR enzymatic assay (S. aureus TrxR; subscreen, after a 30 min incubation period, DMSO 0.483 ± 0.121): 0.1094

CC(C)(C)c1ccc(S)cc1 [C1, 4-tert-butylbenzenethiol]
MIC (S. aureus MW2 [1]): > 128 µg/mL

CC(C)(C)c1ccc(S(=O)O)cc1 [C2, 4-tert-butylbenzenesulfinic acid]
MIC (S. aureus MW2 [1]): > 128 µg/mL

CCP(=O)(CC)CC [C3, triethylphosphine oxide]
MIC (S. aureus MW2 [1]): > 128 µg/mL

O=P(c1ccccc1)(c1ccccc1)c1ccccc1 [C4, Triphenylphosphine oxide]
MIC (S. aureus MW2 [1]): > 128 µg/mL

CC(C)(C)c1ccc(S(=O)(=O)/C=C/C(N)=O)cc1 [D22]
anti-S. aureus activity (in words) (S. aureus MW2 [1]): not effective S. aureus inhibitors
TrxR enzymatic inhibitory activity (in words) (S. aureus TrxR): demonstrated inhibitory activity but required higher concentrations than AU1, AU5, or auranofin

COC(=O)/C=C/S(=O)(=O)c1ccc(C(C)(C)C)cc1 [D25]
anti-S. aureus activity (in words) (S. aureus MW2 [1]): not effective S. aureus inhibitors
TrxR enzymatic inhibitory activity (in words) (S. aureus TrxR): did not inhibit

CC(C)(C)c1ccc(S(=O)(=O)/C=C/CO)cc1 [D26]
anti-S. aureus activity (in words) (S. aureus MW2 [1]): not effective S. aureus inhibitors
TrxR enzymatic inhibitory activity (in words) (S. aureus TrxR): demonstrated inhibitory activity but required higher concentrations than AU1, AU5, or auranofin

Cc1onc(-c2ccccc2)c1C(=O)N[C@@H]1C(=O)N2[C@@H]1SC(C)(C)[C@@H]2C(=O)O [Oxacillin]
MIC ([2]; isolate BFSA12): 0.5 µg/mL (≈ 1.25 µM)
MIC ([2]; isolate BFSA13): 1 µg/mL (≈ 2.49 µM)
MIC ([2]; isolate BFSA15): 0.25 µg/mL (≈ 0.623 µM)
MIC ([2]; isolate BFSA16): 0.25 µg/mL (≈ 0.623 µM)
MIC ([2]; isolate BFSA17): 0.125 µg/mL (≈ 0.311 µM)
MIC ([2]; isolate BFSA18): 0.5 µg/mL (≈ 1.25 µM)
MIC ([2]; isolate BFSA19): 0.5 µg/mL (≈ 1.25 µM)
MIC ([2]; isolate BFSA20): 0.5 µg/mL (≈ 1.25 µM)
MIC ([2]; isolate BFSA21): 0.5 µg/mL (≈ 1.25 µM)
MIC ([2]; isolate BFSA22): 1 µg/mL (≈ 2.49 µM)
MIC ([2]; isolate BFSA24): 0.5 µg/mL (≈ 1.25 µM)
MIC ([2]; isolate BFSA26): 0.25 µg/mL (≈ 0.623 µM)
MIC ([2]; isolate BFSA29): > 8 µg/mL
MIC ([2]; isolate BFSA30): > 8 µg/mL
MIC ([2]; isolate BFSA31): > 8 µg/mL
MIC ([2]; isolate BFSA32): > 8 µg/mL
MIC ([2]; isolate BFSA33): > 8 µg/mL
MIC ([2]; isolate BFSA34): > 8 µg/mL
MIC ([2]; isolate BFSA35): > 8 µg/mL
MIC ([2]; isolate BFSA36): > 8 µg/mL
MIC ([2]; isolate BFSA37): 0.25 µg/mL (≈ 0.623 µM)
MIC ([2]; isolate BFSA38): 0.25 µg/mL (≈ 0.623 µM)
MIC ([2]; isolate BFSA39): 0.25 µg/mL (≈ 0.623 µM)
MIC ([2]; isolate BFSA148): > 8 µg/mL
MIC ([2]; isolate BFSA149): > 8 µg/mL
MIC ([2]; isolate BFSA150): > 8 µg/mL
MIC ([2]; isolate BFSA151): > 8 µg/mL
MIC ([2]; isolate BFSA152): > 8 µg/mL
MIC ([2]; isolate BFSA153): > 8 µg/mL
MIC ([2]; isolate BFSA155): > 8 µg/mL

COC(=O)[C@H]1[C@H]2C[C@@H]3c4[nH]c5cc(OC)ccc5c4CCN3C[C@H]2C[C@@H](OC(=O)c2cc(OC)c(OC)c(OC)c2)[C@@H]1OC [Reserpine]
solubility at 2 h [3]: 7.81 µM (≈ 4.75 µg/mL)

CC1(C)S[C@@H]2[C@H](NC(=O)[C@H](N)c3ccccc3)C(=O)N2[C@H]1C(=O)O [ampicillin]
impact on free thiols (in words) [4]: no impact

CN(C)C(=O)/N=N/C(=O)N(C)C [diamide]
log CFU reduction (S. aureus MW2 [5]; diamide alone 5 mM): 1.5 log CFU
log CFU reduction (S. aureus MW2 [5]; diamide alone 10 mM): up to 2.6 log CFU
